# Laboratory results: PubChem BioAssay (NCI)
#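 Where inhibition never reached the appropriate level, the endpoint shown equals the highest concentration tested. Otherwise, values were interpolated linearly from a five-concentration, 48-hour dose response in 96-well plates. TGI marks complete inhibition of growth.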
# Key:
# Assay in all cases: DTP human tumour cell line panel, 48 h
# [1] = tested on: HT29 colon
# [2] = tested on: UACC-257 melanoma
# [3] = tested on: M14 melanoma
# [4] = tested on: TK-10 renal
# [5] = tested on: MDA-N
# [6] = tested on: ACHN renal
# [7] = tested on: NCI/ADR-RES ovarian
# [8] = tested on: UACC-62 melanoma
# [9] = tested on: NCI-H460 lung
# [10] = tested on: A549 NSCLC
# [11] = tested on: IGROV1 ovarian
# [12] = tested on: LOX IMVI melanoma
# [13] = tested on: NCI-H23 lung
# [14] = tested on: DU-145 prostate
# [15] = tested on: UO-31 renal
# [16] = tested on: MDA-MB-231 breast
# [17] = tested on: SF-295 CNS
# [18] = tested on: MOLT-4 leukemia
# [19] = tested on: SR leukemia
# [20] = tested on: SK-OV-3 ovarian
# [21] = tested on: SW-620 colon
# [22] = tested on: MDA-MB-435
# [23] = tested on: OVCAR-4 ovarian
# [24] = tested on: U251 CNS
# [25] = tested on: MCF7 breast
# [26] = tested on: HOP-92 NSCLC
# [27] = tested on: PC-3 prostate
# [28] = tested on: HS 578T breast
# [29] = tested on: SK-MEL-28 melanoma
# [30] = tested on: RPMI-8226 leukemia
# [31] = tested on: A498 renal
# [32] = tested on: K-562 leukemia
# [33] = tested on: OVCAR-8 ovarian
# [34] = tested on: MALME-3M melanoma
# [35] = tested on: HCC-2998 colon
# [36] = tested on: SNB-19 CNS
# [37] = tested on: SNB-75 CNS
# [38] = tested on: OVCAR-3 ovarian
# [39] = tested on: SF-268 CNS
# [40] = tested on: CAKI-1 renal
# [41] = tested on: SK-MEL-2 melanoma
# [42] = tested on: KM12 colon
# [43] = tested on: HOP-62 NSCLC
# [44] = tested on: SK-MEL-5 melanoma
# [45] = tested on: OVCAR-5 ovarian
# [46] = tested on: CCRF-CEM leukemia
# [47] = tested on: 786-0 renal
# [48] = tested on: NCI-H522 lung
# [49] = tested on: EKVX NSCLC
# [50] = tested on: SF-539 CNS
# [51] = tested on: COLO 205 colon
# [52] = tested on: NCI-H226 lung
# [53] = tested on: T-47D breast
# [54] = tested on: RXF 393 renal
# [55] = tested on: HCT-15 colon
# [56] = tested on: HCT-116 colon
# [57] = tested on: SN12C renal
# [58] = tested on: HL-60(TB) leukemia
smiles,measurement,setting,value
CN1C(=O)CC2CCCN2C1=O (centres undefined),TGI,[1],> 100 µM
same,TGI,[2],> 100 µM
same,TGI,[3],> 100 µM
same,TGI,[4],> 100 µM
same,TGI,[5],> 100 µM
same,TGI,[6],> 100 µM
same,TGI,[7],> 100 µM
same,TGI,[8],> 100 µM
same,TGI,[9],> 100 µM
same,TGI,[10],> 100 µM
same,TGI,[11],> 100 µM
same,TGI,[12],> 100 µM
same,TGI,[13],> 100 µM
same,TGI,[14],> 100 µM
same,TGI,[15],> 100 µM
same,TGI,[16],> 100 µM
same,TGI,[17],> 100 µM
same,TGI,[18],> 100 µM
same,TGI,[19],> 100 µM
same,TGI,[20],> 100 µM
same,TGI,[21],> 100 µM
same,TGI,[22],> 100 µM
same,TGI,[23],> 100 µM
same,TGI,[24],> 100 µM
same,TGI,[25],> 100 µM
same,TGI,[26],> 100 µM
same,TGI,[27],> 100 µM
same,TGI,[28],> 100 µM
same,TGI,[29],> 100 µM
same,TGI,[30],> 100 µM
same,TGI,[31],> 100 µM
same,TGI,[32],> 100 µM
same,TGI,[33],> 100 µM
same,TGI,[34],> 100 µM
same,TGI,[35],> 100 µM
same,TGI,[36],> 100 µM
same,TGI,[37],> 100 µM
same,TGI,[38],> 100 µM
same,TGI,[39],> 100 µM
same,TGI,[40],> 100 µM
same,TGI,[41],> 100 µM
same,TGI,[42],> 100 µM
same,TGI,[43],> 100 µM
same,TGI,[44],> 100 µM
same,TGI,[45],> 100 µM
same,TGI,[46],> 100 µM
same,TGI,[47],> 100 µM
same,TGI,[48],> 100 µM
same,TGI,[49],> 100 µM
same,TGI,[50],> 100 µM
same,TGI,[51],> 100 µM
same,TGI,[52],> 100 µM
same,TGI,[53],> 100 µM
same,TGI,[54],> 100 µM
same,TGI,[55],> 100 µM
CC(C)[C@]12O[C@H]1[C@@H]1O[C@@]13[C@@]1(C)CCC4=C(COC4=O)[C@@H]1C[C@@H]1O[C@@]13C2=O,TGI,[1],> 100 µM
same,TGI,[2],0.0669 µM
same,TGI,[3],0.0493 µM
same,TGI,[4],> 100 µM
same,TGI,[56],> 100 µM
same,TGI,[5],0.0265 µM
same,TGI,[7],> 53.2 µM
same,TGI,[8],0.0312 µM
same,TGI,[9],> 100 µM
same,TGI,[10],> 100 µM
same,TGI,[11],> 100 µM
same,TGI,[12],> 100 µM
same,TGI,[13],< 0.0276 µM
same,TGI,[14],> 28.9 µM
same,TGI,[15],> 100 µM
same,TGI,[16],0.834 µM
same,TGI,[57],> 100 µM
same,TGI,[17],> 100 µM
same,TGI,[18],0.3 µM
same,TGI,[20],> 100 µM
same,TGI,[21],> 42.1 µM
same,TGI,[22],0.0264 µM
same,TGI,[23],0.0621 µM
same,TGI,[24],> 78.7 µM
same,TGI,[25],> 100 µM
same,TGI,[26],0.0829 µM
same,TGI,[27],2.11 µM
same,TGI,[28],0.0882 µM
same,TGI,[29],0.0397 µM
same,TGI,[30],0.063 µM
same,TGI,[31],0.0685 µM
same,TGI,[32],> 100 µM
same,TGI,[33],> 100 µM
same,TGI,[34],0.0541 µM
same,TGI,[36],> 40.9 µM
same,TGI,[37],0.0444 µM
same,TGI,[39],0.522 µM
same,TGI,[41],0.0151 µM
same,TGI,[42],> 22.6 µM
same,TGI,[43],0.115 µM
same,TGI,[58],0.0249 µM
same,TGI,[44],0.0309 µM
same,TGI,[45],> 100 µM
same,TGI,[46],> 100 µM
same,TGI,[48],0.328 µM
same,TGI,[50],0.0428 µM
same,TGI,[51],0.025 µM
same,TGI,[53],> 100 µM
same,TGI,[54],< 0.0158 µM
same,TGI,[55],> 100 µM
Clc1ccccc1/C=C\C1(c2ccccc2)OCCO1,TGI,[1],33.2 µM
same,TGI,[2],31.7 µM
same,TGI,[3],> 100 µM
same,TGI,[4],48.4 µM
same,TGI,[56],25.2 µM
same,TGI,[5],30.2 µM
same,TGI,[6],31.4 µM
same,TGI,[7],31.5 µM
same,TGI,[8],29.5 µM
same,TGI,[9],32.7 µM
same,TGI,[10],> 100 µM
same,TGI,[11],29.9 µM
same,TGI,[12],23.7 µM
same,TGI,[13],22.1 µM
same,TGI,[14],30.3 µM
same,TGI,[15],> 100 µM
same,TGI,[16],26.2 µM
same,TGI,[57],32.7 µM
same,TGI,[17],31.2 µM
same,TGI,[18],73.4 µM
same,TGI,[19],28.9 µM
same,TGI,[20],91.3 µM
same,TGI,[21],43.3 µM
same,TGI,[22],29.6 µM
same,TGI,[23],33 µM
same,TGI,[24],24.8 µM
same,TGI,[25],7.53 µM
same,TGI,[26],> 100 µM
same,TGI,[28],35.1 µM
same,TGI,[29],38 µM
same,TGI,[30],23.1 µM
same,TGI,[31],35.8 µM
same,TGI,[32],> 100 µM
same,TGI,[33],34.3 µM
same,TGI,[35],31.9 µM
same,TGI,[37],34.3 µM
same,TGI,[38],31.6 µM
same,TGI,[39],29.2 µM
same,TGI,[40],31.3 µM
same,TGI,[42],23.7 µM
same,TGI,[43],39.8 µM
same,TGI,[58],73.9 µM
same,TGI,[44],38.6 µM
same,TGI,[45],44.4 µM
same,TGI,[46],53.8 µM
same,TGI,[47],31.1 µM
same,TGI,[48],29.3 µM
same,TGI,[49],36 µM
same,TGI,[50],53.3 µM
same,TGI,[51],40.2 µM
same,TGI,[52],44.3 µM
same,TGI,[53],43.4 µM
same,TGI,[54],34.5 µM
same,TGI,[55],26.3 µM
